#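 Abbreviation: GI50, concentration required for 50% inhibition of growth. TGI marks complete inhibition of growth.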
# What was measured:
# Test in all cases: DTP human tumour cell line panel, 384-well format
# 786-0 renal = system: 786-0 renal
# MALME-3M melanoma = system: MALME-3M melanoma
# CCRF-CEM leukemia = system: CCRF-CEM leukemia
# T-47D breast = system: T-47D breast
# BT-549 breast = system: BT-549 breast
# SK-MEL-28 melanoma = system: SK-MEL-28 melanoma
# SN12C renal = system: SN12C renal
# NCI-H522 lung = system: NCI-H522 lung
# RXF 393 renal = system: RXF 393 renal
# TK-10 renal = system: TK-10 renal
# SW-620 colon = system: SW-620 colon
# A549 NSCLC = system: A549 NSCLC
# NCI/ADR-RES ovarian = system: NCI/ADR-RES ovarian
# NCI-H226 lung = system: NCI-H226 lung
# SF-268 CNS = system: SF-268 CNS
# LOX IMVI melanoma = system: LOX IMVI melanoma
# M14 melanoma = system: M14 melanoma
# SF-295 CNS = system: SF-295 CNS
# A498 renal = system: A498 renal
# HCC-2998 colon = system: HCC-2998 colon
# OVCAR-3 ovarian = system: OVCAR-3 ovarian
# UO-31 renal = system: UO-31 renal
# HOP-62 NSCLC = system: HOP-62 NSCLC
# SK-OV-3 ovarian = system: SK-OV-3 ovarian
# KM12 colon = system: KM12 colon
# OVCAR-5 ovarian = system: OVCAR-5 ovarian
# ACHN renal = system: ACHN renal
# COLO 205 colon = system: COLO 205 colon
# K-562 leukemia = system: K-562 leukemia
# PC-3 prostate = system: PC-3 prostate
# HCT-116 colon = system: HCT-116 colon
# MDA-MB-468 breast = system: MDA-MB-468 breast
# OVCAR-8 ovarian = system: OVCAR-8 ovarian
# HCT-15 colon = system: HCT-15 colon
# MDA-MB-435 melanoma = system: MDA-MB-435 melanoma
# UACC-257 melanoma = system: UACC-257 melanoma
# NCI-H460 NSCLC = system: NCI-H460 NSCLC
# OVCAR-4 ovarian = system: OVCAR-4 ovarian
# SK-MEL-5 melanoma = system: SK-MEL-5 melanoma
# SNB-75 CNS = system: SNB-75 CNS
# IGROV1 ovarian = system: IGROV1 ovarian
# HOP-92 NSCLC = system: HOP-92 NSCLC
# SK-MEL-2 melanoma = system: SK-MEL-2 melanoma
# SNB-19 CNS = system: SNB-19 CNS
# MDA-MB-231 breast = system: MDA-MB-231 breast
# DU-145 prostate = system: DU-145 prostate
# RPMI-8226 leukemia = system: RPMI-8226 leukemia
# U251 glioblastoma = system: U251 glioblastoma
# NCI-H23 lung = system: NCI-H23 lung
# HS 578T breast = system: HS 578T breast
# HT29 colon = system: HT29 colon
# EKVX NSCLC = system: EKVX NSCLC
# MCF7 breast = system: MCF7 breast
# HL-60(TB) leukemia = system: HL-60(TB) leukemia
# CAKI-1 renal = system: CAKI-1 renal
# NCI-H322M lung = system: NCI-H322M lung
# SF-539 CNS = system: SF-539 CNS
# MOLT-4 leukemia = system: MOLT-4 leukemia
# UACC-62 melanoma = system: UACC-62 melanoma
compound,measurement,setting,value
CCNC(=O)Nc1ccc(-c2nc3c(c(N4CCOC[C@@H]4C)n2)CCN(C2COC2)C3)cc1,GI50,786-0 renal,1190 nM
same,TGI,786-0 renal,> 100000 nM
same,GI50,MALME-3M melanoma,167 nM
same,TGI,MALME-3M melanoma,3020 nM
same,GI50,CCRF-CEM leukemia,325 nM
same,TGI,CCRF-CEM leukemia,19800 nM
same,GI50,T-47D breast,26.3 nM
same,TGI,T-47D breast,437 nM
same,GI50,BT-549 breast,220 nM
same,TGI,BT-549 breast,2560 nM
same,GI50,SK-MEL-28 melanoma,443 nM
same,TGI,SK-MEL-28 melanoma,28000 nM
same,GI50,SN12C renal,310 nM
same,TGI,SN12C renal,> 100000 nM
same,GI50,NCI-H522 lung,159 nM
same,TGI,NCI-H522 lung,8130 nM
same,GI50,RXF 393 renal,212 nM
same,TGI,RXF 393 renal,2130 nM
same,GI50,TK-10 renal,390 nM
same,TGI,TK-10 renal,5650 nM
same,GI50,SW-620 colon,2280 nM
same,TGI,SW-620 colon,> 100000 nM
same,GI50,A549 NSCLC,480 nM
same,TGI,A549 NSCLC,> 100000 nM
same,GI50,NCI/ADR-RES ovarian,11400 nM
same,TGI,NCI/ADR-RES ovarian,> 100000 nM
same,GI50,NCI-H226 lung,207 nM
same,TGI,NCI-H226 lung,3330 nM
same,GI50,SF-268 CNS,1220 nM
same,TGI,SF-268 CNS,> 100000 nM
same,GI50,LOX IMVI melanoma,658 nM
same,TGI,LOX IMVI melanoma,13800 nM
same,GI50,M14 melanoma,416 nM
same,TGI,M14 melanoma,> 100000 nM
same,GI50,SF-295 CNS,305 nM
same,TGI,SF-295 CNS,2540 nM
same,GI50,A498 renal,93.8 nM
same,TGI,A498 renal,1900 nM
same,GI50,HCC-2998 colon,440 nM
same,TGI,HCC-2998 colon,> 100000 nM
same,GI50,OVCAR-3 ovarian,445 nM
same,TGI,OVCAR-3 ovarian,> 100000 nM
same,GI50,UO-31 renal,654 nM
same,TGI,UO-31 renal,> 100000 nM
same,GI50,HOP-62 NSCLC,494 nM
same,TGI,HOP-62 NSCLC,11000 nM
same,GI50,SK-OV-3 ovarian,189 nM
same,TGI,SK-OV-3 ovarian,5370 nM
same,GI50,KM12 colon,479 nM
same,TGI,KM12 colon,> 100000 nM
same,GI50,OVCAR-5 ovarian,1040 nM
same,TGI,OVCAR-5 ovarian,> 100000 nM
same,GI50,ACHN renal,485 nM
same,TGI,ACHN renal,> 100000 nM
same,GI50,COLO 205 colon,347 nM
same,TGI,COLO 205 colon,> 100000 nM
same,GI50,K-562 leukemia,752 nM
same,TGI,K-562 leukemia,> 100000 nM
same,GI50,PC-3 prostate,218 nM
same,TGI,PC-3 prostate,> 100000 nM
same,GI50,HCT-116 colon,3280 nM
same,TGI,HCT-116 colon,> 100000 nM
same,GI50,MDA-MB-468 breast,173 nM
same,TGI,MDA-MB-468 breast,2380 nM
same,GI50,OVCAR-8 ovarian,966 nM
same,TGI,OVCAR-8 ovarian,> 100000 nM
same,GI50,HCT-15 colon,669 nM
same,TGI,HCT-15 colon,> 100000 nM
same,GI50,MDA-MB-435 melanoma,716 nM
same,TGI,MDA-MB-435 melanoma,7410 nM
same,GI50,UACC-257 melanoma,1450 nM
same,TGI,UACC-257 melanoma,14600 nM
same,GI50,NCI-H460 NSCLC,108 nM
same,TGI,NCI-H460 NSCLC,> 100000 nM
same,GI50,OVCAR-4 ovarian,279 nM
same,TGI,OVCAR-4 ovarian,3450 nM
same,GI50,SK-MEL-5 melanoma,221 nM
same,TGI,SK-MEL-5 melanoma,2260 nM
same,GI50,SNB-75 CNS,46.2 nM
same,TGI,SNB-75 CNS,980 nM
same,GI50,IGROV1 ovarian,147 nM
same,TGI,IGROV1 ovarian,885 nM
same,GI50,HOP-92 NSCLC,605 nM
same,TGI,HOP-92 NSCLC,8680 nM
same,GI50,SK-MEL-2 melanoma,1890 nM
same,TGI,SK-MEL-2 melanoma,7590 nM
same,GI50,SNB-19 CNS,2820 nM
same,TGI,SNB-19 CNS,> 100000 nM
same,GI50,MDA-MB-231 breast,476 nM
same,TGI,MDA-MB-231 breast,> 100000 nM
same,GI50,DU-145 prostate,640 nM
same,TGI,DU-145 prostate,> 100000 nM
same,GI50,RPMI-8226 leukemia,38.7 nM
same,TGI,RPMI-8226 leukemia,276 nM
same,GI50,U251 glioblastoma,1350 nM
same,TGI,U251 glioblastoma,> 100000 nM
same,GI50,NCI-H23 lung,1910 nM
same,TGI,NCI-H23 lung,> 100000 nM
same,GI50,HS 578T breast,116 nM
same,TGI,HS 578T breast,596 nM
same,GI50,HT29 colon,4780 nM
same,TGI,HT29 colon,> 100000 nM
same,GI50,EKVX NSCLC,381 nM
same,TGI,EKVX NSCLC,9360 nM
same,GI50,MCF7 breast,131 nM
same,TGI,MCF7 breast,68600 nM
same,GI50,HL-60(TB) leukemia,5400 nM
same,TGI,HL-60(TB) leukemia,> 100000 nM
same,GI50,CAKI-1 renal,323 nM
same,TGI,CAKI-1 renal,4100 nM
same,GI50,NCI-H322M lung,527 nM
same,TGI,NCI-H322M lung,> 100000 nM
same,GI50,SF-539 CNS,656 nM
same,TGI,SF-539 CNS,> 100000 nM
same,GI50,MOLT-4 leukemia,207 nM
same,TGI,MOLT-4 leukemia,11100 nM
same,GI50,UACC-62 melanoma,366 nM
same,TGI,UACC-62 melanoma,3810 nM
